Series [1] has as its system diffuse large B-cell lymphoma (DLBCL) cell lines. The series can be described thus: PI nuclear staining assay, apoptotic cells in DLBCL cell lines. Type of series: cell-based, human. As to conditions: 10 μM, 6 days. As for the experimental part:
Current treatment of diffuse large B-cell lymphoma typically involves treatment with combination therapy, such as cyclophosphamide, doxorubicin, vincristine and prednisone (CHOP), or rituximab, cyclophosphamide, doxorubicin, vincristine and prednisone (R-CHOP). With those current treatments, many patients relapse and/or develop drug resistance at some point. The potential of the Gadd45β/MKK7 inhibitor DTP3 to operate in these settings was evaluated, by determining levels of apoptosis in diffuse large B-cell lymphoma cell lines known to be resistant to current therapies (HT, SU-DHL-8, U-2932, RC-K8 and RIVA, see for example Kaneko et al, Clinical Cancer Research, 2014, 20, p 1814-1820; Naylor et al, Cancer Research, 2011, Volume 71, p 2643-2653; Lyu et al, Cancer Research, 2013, Volume 73, Issue 8, Supplement 1), following treatment of those cells with DTP3. These cells have CARD11, A20 and/or MYD88 mutations and are also known to be resistant to agents such as Bruton's tyrosine kinase inhibitors, spleen tyrosine kinase inhibitors, PI3K inhibitors and/or protein kinase C inhibitors.
The percentages of apoptotic cells are depicted.
A comparison was made between the ability of DTP3 to kill various DLBCL cell lines by apoptosis in vitro. Cell lines HT, SU-DHL-8, U-2932 and RC-K8 which are known to be sensitive to DTP3; and insensitive cell lines RI-1, NU-DUL-1, TMD8, and HBL1 were used. Cell death was assessed using a standard propidium iodide (PI) nuclear staining assay followed by flow cytometry whereby the proportion of cells with a sub G1-DNA content was measured after cells had been exposed to DTP3 for 6 days at 10 μM. As controls, further populations of cells were left untreated (UT) or were treated with a scrambled D-tripeptide (SCR) for 6 days.
Apoptosis analyses were performed using propidium iodide (PI) nuclear labelling, as described previously (Riccardi and Nicoletti, 2006). Briefly, cells were seeded at a density of 2×10^5 cells/well into wells of either 24- or 48-well plates and cultured in the presence or absence of treatment, as shown. Cells were then fixed in 70% ice-cold ethanol for 16 hr, washed in PBS, and treated with ribonuclease A (50 μg/mL) for 30 min at room temperature. Samples were finally stained with PI (50 μg/mL) in 0.1% sodium citrate buffer for 2 to 4 hr at 4° C. in the dark, and data were acquired using a FACSCalibur automated system (Becton Dickinson) and analysed with FlowJo.

Series [2] deals with subcutaneous U266 myeloma xenografts. Briefly: plasmacytoma model, subcutaneous U266 myeloma xenografts. The note with it: for effect on established subcutaneous myeloma xenografts (tumour volume): to day 28. It is filed as in vivo, NOD/SCID mice. As for the experimental part: (§1) Values denote means±SEM (n=16). ***, p<0.001.
(§2) Mice were housed in the animal facilities at Hammersmith. All experiments were conducted under PPL 70/6874, after approval by the Imperial College Ethical Review Process and the Home Office. For the plasmacytoma model, NOD/SCID mice (NOD.CB17-Prkdc^scid/IcrCrl; Charles River) were injected subcutaneously with 1.0×10^7 U266 or KMS-11 multiple myeloma cells, and then randomized into treatment groups and treated by infusion, as shown. Tumour volumes were measured as described in Mauro et al., 2011. For the orthotopic multiple myeloma model, mice of the same strain were sub-lethally irradiated and then injected intravenously with 1.0×10^7 KMS-12-BM multiple myeloma cells, as described in Rabin et al., 2007). Mice were then randomized into treatment groups and treated by infusion for 8 weeks, as shown. Animals were monitored daily and euthanized on day 161 of treatment start or when they reached any of the end-points in the PPL. Additional details are provided in the Supplemental Experimental Procedures.
(§3) Mice were housed in the animal facilities at the Hammersmith Campus, Imperial College London, and experiments were conducted under the Home Office Authority (PPL 70/6874). The PPL was reviewed by the Imperial College Ethical Review Process (ERP) and the Home Office. For experiments in the subcutaneous xenograft models (FIGS. 16-17), 6 to 8-week old male NOD/SCID mice (NOD.CB17-Prkdc^scid/IcrCrl; Charles River) were injected intraperitoneally with anti-CD122 monoclonal antibody (TM-β1 clone; 200 μg/mouse) (Tanaka et al., 1991) and, 24 hr later, subcutaneously in the left flank with 1.0×10^7 U266 or KMS-11 human multiple myeloma cells resuspended in 200 μL of sterile PBS and Matrigel (1:1) (BD Biosciences), using a 1-mL Luer-Lok™ Tip syringe (BD Biosciences) with a 25-gauge needle (Bhutani et al., 2007). U266 and KMS-11 cells were harvested from exponentially growing cultures, washed once with serum-free medium, and resuspended in PBS immediately before injection (Bhutani et al., 2007). The anti-CD122 antibody was affinity purified using HiTrap Protein G HP columns (GE Healthcare), according to the manufacturer's instructions. One week after injection of the cells, when tumour volumes had reached approximately 100 mm^3 (U266 cells) or tumours had yet to be palpable (KMS-11 cells), mice were randomized into treatment groups (n=16 or n=4 per group, respectively; day 0) (Bhutani et al., 2007) and, then, treated by continual infusion of DTP3 at a dose of 14.5 mg/kg/d, yielding a plasma concentration of 0.70±0.09 μM (SEM; n=16), or PBS. Treatments were administered using Alzet osmotic pumps (model 1004; 28-day delivery at the rate of […]; Charles River), implanted surgically subcutaneously into the right flank of each mouse, according to the manufacturer's instructions (Gullapalli et al., 2012). For systemic administration, DTP3 was dissolved at the concentration of 147 mg/mL in PBS, and mice were euthanized on day 28 of the start of treatment with CO2. Tumour diameters were measured at the indicated times using a vernier calliper, and volumes were estimated from calliper measurements using the following equation: volume=A×B^2/2 (where A is the larger diameter, and B is the smaller diameter of the tumour) (Mauro et al., 2011). Results were reproduced at least twice. The plasma concentration of DTP3 was measured at the steady state by LC-MS/MS at Cyprotex, as described above.

Assay in series [3]: as above
It is filed as in vivo, NOD/SCID mice. As to conditions: male, NOD/SCID (NOD.CB17-Prkdc^scid/IcrCrl), mouse, plasma, sc, 14.5 mg/kg/day; continual infusion via osmotic pumps, 14.5 mg/kg/d; SEM, n=16; read-out: plasma concentration at the steady state. As for the experimental part: as §1, §2, §3

The next series can be described thus: FIG. 14. From the text:
Table printed on a drawing sheet, FIG. 14
Values denote means±SD (n=3).
First reader's note: Each cell holds the value ± error and its unit together.

Setting [4] is: 14.5 mg/kg/day continual infusion.
The mark [5] stands for this setting: 14.5 mg/kg/day, results not shown.

On to `CC(=O)N[C@H](Cc1ccc(O)cc1)C(=O)N[C@H](CCCNC(=N)N)C(=O)N[C@H](Cc1ccccc1)C(N)=O` [DTP3, Acetyl-Tyr-Arg-Phe-NH2], for which, in series [1] (HT, SU-DHL-8, U-2932, RC-K8), the “apoptosis in DLBCL cell lines resistant to conventional DLBCL treatments” value is “effective in causing apoptosis” and the “apoptosis in sensitive DLBCL cell lines” value is on record as “substantial increases in apoptosis”. In series [1] (RI-1, NU-DUL-1, TMD8, HBL1), the “apoptosis in insensitive DLBCL cell lines” value is reported as “no increase in apoptosis”. For the same compound, in series [2] (setting [4]), the side effects entry was “absence of any apparent side effects” and the “effect on established subcutaneous myeloma xenografts (tumour volume)” value is listed as “virtually eradicated”. The “effect on established subcutaneous myeloma xenografts (tumour volume)” value in series [2] (14.5 mg/kg/day continual infusion, listed as DTP-3) is “dramatic shrinkage of the tumors”. In series [2] (setting [5]), the “appearance of caspase-3 and PARP-1 proteolysis products in tumour” value turned out to be 3 days; the “appearance of phosphorylated JNK in tumour after onset of treatment” value worked out at 24 h. Besides, the level at time molar in series [3] was approximately 1000 nM. For the same compound, in the series “FIG. 14”, the CL is on record as 27.13 ± 4.09 mL/min/kg and the Vd is 2.80 ± 1.26 L/kg.

One may read the Vd as a proportionality between amount in the body and measured concentration, not a real space. A lower Vd goes with little distribution into tissue.
